Assay results from patent US5541194A (priority 1987, dated 1996).
Where two headings read alike, the source gives them in different places.

Legend:
[1] = target: muscarinic receptors; experiment: Radio ligand binding: displacement of muscarinic agonist 3H-Oxotremorine-M (3H-OXO-M) in rat cerebral cortex; set-up: species or system Hooded Lister rats; conditions: displacement of 2 nM 3H-OXO-M; rat cerebral cortex membranes; 37° C., 30 min; 2 mM magnesium chloride; ^+ tested as the oxalate salt, ^++ tested as the hydrochloride salt
[2] = target: muscarinic receptors; type: binding, Hooded Lister rats; conditions: displacement of 0.27 nM 3H-QNB; rat cerebral cortex membranes; 37° C., 30 min; ^+ tested as the oxalate salt, ^++ tested as the hydrochloride salt

| Structure (SMILES) | IC50 [1] [µM] | IC50 [2] [µM] |
| --- | --- | --- |
| c1cc(C2CN3CCC2CC3)on1 (racemic) [Example E1, (±) 3-(1,2-Oxazol-5-yl)-1-azabicyclo[2.2.2]octane] | 0.477 | 15.5 |
| Cc1cc(C2CN3CCC2CC3)on1 (racemic) [Example E6, (±)3-(3-Methyl-1,2-oxazol-5-yl)-1-azabicyclo[2.2.2]octane] | 0.395 | 4.3 |
| Cc1ncc(C2CN3CCC2CC3)o1 (racemic) [Example E7, (±) 3-(2-Methyl-1,3-oxazol-5-yl)-1-azabicyclo[2.2.2]octane] | 0.105 | 4.4 |
| c1cc(C2CN3CCC2CC3)co1 (racemic) [Example E10, (±) 3-(Fur-3-yl)-1-azabicyclo[2.2.2]octane] | 0.834 | 19.5 |
| c1ncc(C2CN3CCC2CC3)o1 (racemic) [Example E11, (±) 3-(1,3-Oxazol-5-yl)-1-azabicyclo[2.2.2]octane] | 0.48 | 24 |
| c1ncc(C2CN3CCC2C3)o1 (racemic) [Example E12, (±) exo and endo-3-(1,3-Oxazol-5-yl)-1-azabicyclo[2.2.1]heptane] | 0.15 | 29 |
| CCc1ncc(C2CN3CCC2C3)o1 (racemic) [Example E14, (±) 3-(2-Ethyl-1,3-oxazol-5-yl)-1-azabicyclo[2.2.1]heptane] | 0.8 | 9.6 |
| c1coc([C@@H]2CN3CC[C@@H]2C3)c1 (relative stereo) [Example E4, (±) exo-3-(Fur-2-yl)-1-azabicyclo[2.2.1]heptane] | 0.088 | 7 |
| Cc1ccc([C@@H]2CN3CC[C@@H]2C3)o1 (relative stereo) [Example E5, (±) exo-3-(5-Methyl-fur-2-yl)-1-azabicyclo[2.2.1]heptane] | 0.115 | 3.2 |
| Cc1ncc([C@@H]2CN3CC[C@@H]2C3)o1 (relative stereo) [Example E8A, (±) exo- and endo-3-(2-Methyl-1,3-oxazol-5-yl)-1-azabicyclo[2.2.1]heptane] | 0.024 | 7.5 |
| Cc1cc([C@@H]2CN3CC[C@@H]2C3)on1 (relative stereo) [Example E9, (±) exo-3-(3-Methyl-1,2-oxazol-5-yl)-1-azabicyclo[2.2.1]heptane] | 0.102 | 7.5 |
| c1cc([C@@H]2CN3CC[C@@H]2C3)on1 (relative stereo) [Example E13, (±) exo-3-(1,2-Oxazol-5-yl)-1-azabicyclo[2.2.1]heptane] | 0.173 | 30.3 |
